Data reported in DBAASP.
≈ marks a conversion by molar mass, not a printed value. Each block holds one compound with its values, some of them ahead of it.

Experiments:
Assay in all cases: ≥ marks a high value that may be exact or a test limit, other limits are often not marked, values filed in µg/mL are converted to µM
[1] = test system: Bacillus subtilis ATCC 23857
[2] = test system: Candida albicans ATCC 10231
[3] = test system: Pseudomonas aeruginosa ATCC 27853
[4] = test system: Bacillus megaterium
[5] = test system: Escherichia coli ATCC 25922
[6] = test system: Aureobasidium pullulans
[7] = test system: Staphylococcus aureus ATCC 9144
[8] = test system: Micrococcus luteus
[9] = test system: Corynebacterium glutamicum ATCC 13032
[10] = test system: Staphylococcus aureus ATCC 29213
[11] = test system: Escherichia coli SBS 363
[12] = test system: Klebsiella pneumoniae ATCC 13883
[13] = test system: Pseudomonas aeruginosa
[14] = test system: Acinetobacter baumannii ATCC 19606
[15] = test system: Staphylococcus aureus ATCC 43300
[16] = test system: Klebsiella pneumoniae ATCC BAA-2146
[17] = test system: Acinetobacter baumannii
[18] = test system: Klebsiella pneumoniae
[19] = test system: Candida albicans ATCC 90028
[20] = test system: Klebsiella pneumoniae ATCC 700603
[21] = test system: Cryptococcus neoformans ATCC 208821
[22] = test system: Bacillus subtilis ATCC 6051
[23] = test system: Escherichia coli UB1005
[24] = test system: Salmonella enterica subsp. enterica serovar Typhimurium ATCC 14028s
[25] = test system: Pseudomonas aeruginosa K799
[26] = test system: Staphylococcus aureus ATCC 25923
[27] = test system: Staphylococcus epidermidis C621
[28] = test system: Enterococcus faecalis ATCC 29212
[29] = test system: Escherichia coli KCTC 1682
[30] = test system: Staphylococcus epidermidis KCTC 1917
[31] = test system: Bacillus subtilis KCTC 3068
[32] = test system: Salmonella typhimurium KCTC 1926
[33] = test system: Acinetobacter baumannii KCTC 2508
[34] = test system: Pseudomonas aeruginosa CCARM 2002
[35] = test system: Staphylococcus aureus KCTC 1621
[36] = test system: Staphylococcus aureus CCARM 3126
[37] = test system: Salmonella typhimurium CCARM 8007
[38] = test system: Pseudomonas aeruginosa KCTC 2004
[39] = test system: Acinetobacter baumannii CCARM 12035
[40] = test system: Escherichia coli CCARM 1229

Structure (SMILES): C[C@H](NC(=O)[C@H](CCCCN)NC(=O)[C@H](Cc1c[nH]c2ccccc12)NC(=O)CNC(=O)CNC(=O)[C@@H]1CCCN1C(=O)[C@H](CCCCN)NC(=O)[C@H](CCCCN)NC(=O)CN)C(=O)N[C@@H](CCCCN)C(N)=O [GKKPGGWKAK]
MIC [1]: ≥ 237 µM
MIC [2]: > 237 µM
MIC [3]: > 237 µM
MIC [4]: ≥ 237 µM
MIC [5]: > 237 µM
MIC [6]: ≥ 237 µM
MIC [7]: ≥ 237 µM
MIC [8]: ≥ 237 µM
MIC [9]: ≥ 237 µM

Structure (SMILES): CC[C@H](C)[C@@H]1NC(=O)CNC(=O)[C@H](CCCN=C(N)N)NC(=O)[C@H](Cc2ccc(O)cc2)NC(=O)[C@@H]2CSSC[C@H](NC1=O)C(=O)N[C@@H](Cc1ccc(O)cc1)C(=O)N[C@@H](CCCN=C(N)N)C(=O)N[C@@H](CCCN=C(N)N)C(=O)N[C@H](C(=O)N[C@@H](CCCN=C(N)N)C(=O)O)CSSC[C@H](NC(=O)[C@H](Cc1c[nH]c3ccccc13)NC(=O)[C@@H](N)CCCCN)C(=O)N[C@@H](Cc1ccccc1)C(=O)N[C@@H](CCCN=C(N)N)C(=O)N[C@@H](C)C(=O)N2 [KWCFRACYRGICYRRCR]
MIC [12]: 0.112 µM (≈ 0.25 µg/mL)
MIC [13]: 0.893 µM (≈ 2 µg/mL)
MIC [14]: 0.112 µM (≈ 0.25 µg/mL)
MIC [3]: 0.446 µM (≈ 0.998 µg/mL)
MIC [15]: 1.79 µM (≈ 3.99 µg/mL)
MIC [16]: 0.446 µM (≈ 0.998 µg/mL)
MIC [17]: 0.223 µM (≈ 0.499 µg/mL)
MIC [18]: 7.14 µM (≈ 16 µg/mL)
MIC [5]: 0.112 µM (≈ 0.25 µg/mL)
MIC [19]: 3.57 µM (≈ 7.99 µg/mL)
MIC [20]: 0.446 µM (≈ 0.998 µg/mL)
MIC [21]: 0.446 µM (≈ 0.998 µg/mL)
MIC [22]: 0.112 µM (≈ 0.25 µg/mL)

Structure (SMILES): CC[C@H](C)[C@@H]1NC(=O)CNC(=O)[C@H](C)NC(=O)[C@H](Cc2ccc(O)cc2)NC(=O)[C@@H]2CSSC[C@H](NC1=O)C(=O)N[C@@H](Cc1ccc(O)cc1)C(=O)N[C@@H](CCCN=C(N)N)C(=O)N[C@@H](CCCN=C(N)N)C(=O)N[C@H](C(=O)N[C@@H](CCCN=C(N)N)C(=O)O)CSSC[C@H](NC(=O)[C@H](Cc1c[nH]c3ccccc13)NC(=O)[C@@H](N)CCCCN)C(=O)N[C@@H](Cc1ccccc1)C(=O)N[C@@H](CCCN=C(N)N)C(=O)N[C@@H](CCCN=C(N)N)C(=O)N2 [KWCFRRCYAGICYRRCR]
MIC [12]: 7.14 µM (≈ 16 µg/mL)
MIC [13]: > 7.14 µM
MIC [14]: 7.14 µM (≈ 16 µg/mL)
MIC [3]: > 7.14 µM
MIC [15]: > 7.14 µM
MIC [16]: 7.14 µM (≈ 16 µg/mL)
MIC [17]: 7.14 µM (≈ 16 µg/mL)
MIC [18]: > 7.14 µM
MIC [5]: 0.223 µM (≈ 0.499 µg/mL)
MIC [19]: 7.14 µM (≈ 16 µg/mL)
MIC [20]: 7.14 µM (≈ 16 µg/mL)
MIC [21]: 1.79 µM (≈ 3.99 µg/mL)
MIC [22]: 0.112 µM (≈ 0.25 µg/mL)

Structure (SMILES): CC[C@H](C)[C@H](NC(=O)[C@@H]1CSSC[C@H](NC(=O)[C@@H](NC(=O)[C@@H](N)CCCN=C(N)N)[C@@H](C)CC)C(=O)N[C@@H](CCCN=C(N)N)C(=O)N[C@@H]([C@@H](C)CC)C(=O)N[C@@H](C(C)C)C(=O)N[C@@H](C(C)C)C(=O)N[C@@H]([C@@H](C)CC)C(=O)N[C@@H](CCCN=C(N)N)C(=O)N1)C(=O)N[C@@H](CCCN=C(N)N)C(N)=O [RICRIVVIRCIR]
MIC [23]: 2.67 µM (≈ 3.99 µg/mL)
MIC [24]: 5.33 µM (≈ 7.98 µg/mL)
MIC [25]: 10.7 µM (≈ 16 µg/mL)
MIC [26]: 21.3 µM (≈ 31.9 µg/mL)
MIC [27]: 5.33 µM (≈ 7.98 µg/mL)
MIC [28]: > 21.3 µM

Further lines, results first:

MIC [1]: ≥ 109 µM
MIC [2]: 109 µM (≈ 125 µg/mL)
MIC [3]: > 218 µM
MIC [4]: 3.41 µM (≈ 3.9 µg/mL)
MIC [5]: > 218 µM
MIC [6]: ≥ 54.6 µM
MIC [7]: ≥ 218 µM
MIC [8]: ≥ 218 µM
MIC [9]: 27.3 µM (≈ 31.3 µg/mL)
Structure (SMILES): C[C@H](NC(=O)[C@H](CCCCN)NC(=O)[C@H](Cc1c[nH]c2ccccc12)NC(=O)CNC(=O)CNC(=O)[C@H](Cc1c[nH]c2ccccc12)NC(=O)[C@H](CCCCN)NC(=O)[C@H](CCCCN)NC(=O)CN)C(=O)N[C@@H](CCCCN)C(N)=O [GKKWGGWKAK]

MIC [10]: > 250 µM
MIC [11]: ≥ 250 µM
MIC [5]: > 250 µM
Structure (SMILES): CC(C)C[C@H](NC(=O)CN)C(=O)N[C@@H](Cc1ccccc1)C(=O)N[C@@H](CCCCN)C(=O)NCC(=O)N[C@@H](CCCCN)C(=O)N[C@@H](CCCCN)C(=O)N[C@@H](CCCCN)C(=O)N[C@@H](CC(N)=O)C(=O)N[C@@H](CCCCN)C(=O)N[C@@H](CCCCN)C(=O)N[C@H](C(=O)N[C@@H](CCCCN)C(N)=O)[C@@H](C)O [GLFKGKKKNKKTK]

MIC [29]: 16 µM (≈ 24.5 µg/mL)
MIC [30]: ≥ 64 µM
MIC [31]: ≥ 64 µM
MIC [32]: ≥ 64 µM
MIC [33]: ≥ 64 µM
MIC [34]: 16 µM (≈ 24.5 µg/mL)
MIC [35]: 16 µM (≈ 24.5 µg/mL)
MIC [36]: ≥ 64 µM
MIC [37]: ≥ 32 µM
MIC [38]: 8 µM (≈ 12.2 µg/mL)
MIC [39]: 16 µM (≈ 24.5 µg/mL)
MIC [40]: ≥ 64 µM
Structure (SMILES): CC[C@H](C)[C@H](NC(=O)[C@H](CCCCN)NC(=O)[C@H](CCCCN)NC(=O)[C@H](Cc1ccccc1)NC(=O)[C@@H](NC(=O)[C@H](CCCCN)NC(=O)[C@H](Cc1c[nH]c2ccccc12)NC(=O)[C@@H](N)CCCN=C(N)N)[C@@H](C)CC)C(=O)N[C@@H](CCC(=O)O)C(=O)N[C@@H](CCCCN)C(=O)N[C@H](C(=O)NCC(N)=O)C(C)C [RWKIFKKIEKVG]

MIC [29]: 8 µM (≈ 12.2 µg/mL)
MIC [30]: 16 µM (≈ 24.5 µg/mL)
MIC [31]: 16 µM (≈ 24.5 µg/mL)
MIC [32]: ≥ 32 µM
MIC [33]: 8 µM (≈ 12.2 µg/mL)
MIC [34]: 16 µM (≈ 24.5 µg/mL)
MIC [35]: 8 µM (≈ 12.2 µg/mL)
MIC [36]: 16 µM (≈ 24.5 µg/mL)
MIC [37]: 16 µM (≈ 24.5 µg/mL)
MIC [38]: 8 µM (≈ 12.2 µg/mL)
MIC [39]: 8 µM (≈ 12.2 µg/mL)
MIC [40]: 16 µM (≈ 24.5 µg/mL)
Structure (SMILES): CC[C@H](C)[C@H](NC(=O)[C@H](CCCCN)NC(=O)[C@H](Cc1c[nH]c2ccccc12)NC(=O)[C@@H](N)CCCN=C(N)N)C(=O)N[C@@H](Cc1ccccc1)C(=O)N[C@@H](CCCCN)C(=O)N[C@@H](CCCCN)C(=O)N[C@H](C(=O)N[C@H](C(=O)N[C@@H](CCCCN)C(=O)N[C@@H](CCCCN)C(=O)N[C@@H](C)C(N)=O)C(C)C)C(C)C [RWKIFKKVVKKA]

MIC [2]: 100 µM (≈ 188 µg/mL)
MIC [3]: 25 µM (≈ 47.1 µg/mL)
MIC [5]: 6.3 µM (≈ 11.9 µg/mL)
MIC [6]: ≥ 100 µM
MIC [7]: 12.5 µM (≈ 23.5 µg/mL)
MIC [9]: 0.4 µM (≈ 0.753 µg/mL)
Structure (SMILES): CC(C)[C@H](NC(=O)[C@H](CCCCN)NC(=O)[C@H](C)NC(=O)[C@@H](NC(=O)[C@@H](NC(=O)[C@H](CCCN=C(N)N)NC(=O)[C@H](CCCN=C(N)N)NC(=O)[C@H](Cc1c[nH]c2ccccc12)NC(=O)[C@@H](N)Cc1c[nH]c2ccccc12)[C@@H](C)O)C(C)C)C(=O)N[C@@H](CCCN=C(N)N)C(=O)N[C@@H](CC(N)=O)C(=O)N[C@@H](C)C(=O)NCC(=O)N[C@@H](CCCN=C(N)N)C(=O)N[C@@H](CCCCN)C(N)=O [WWRRTVAKVRNAGRK]
